Entries after “also recorded” stand apart in the source; their conditions may differ. Bridge positions count the residues as written; N and C are the ends. Square brackets hold non-standard residues; d marks the D form. Peptide text beside a SMILES is read from it. I, II: the chains in the order shown. * marks the point of attachment. DOTA = O=C(O)CN1CCN(CC(=O)O)CCN(CC(=O)*)CCN(CC(=O)O)CC1; Nle = CCCC[C@H](N)C(=O)O
Legend:
NPY Y1 [1] = target: T1, NPY Y1 (Homo sapiens, UniProt P25929); test: Receptor autoradiography binding, 125I-hPYY displacement on SK-N-MC cell membrane pellet sections; conditions: for Displacement of 125I-hPYY (FIG. 2): SK-N-MC cell line, competition experiments; for IC50: SK-N-MC membrane pellet sections, 125I-hPYY, read-out: Binding affinity (IC50 nM) Y1 (SK-N-MC)
T1 construct: SK-N-MC cells endogenously expressing Y1; host or cells: SK-N-MC
T1 sequence (P25929 1-384): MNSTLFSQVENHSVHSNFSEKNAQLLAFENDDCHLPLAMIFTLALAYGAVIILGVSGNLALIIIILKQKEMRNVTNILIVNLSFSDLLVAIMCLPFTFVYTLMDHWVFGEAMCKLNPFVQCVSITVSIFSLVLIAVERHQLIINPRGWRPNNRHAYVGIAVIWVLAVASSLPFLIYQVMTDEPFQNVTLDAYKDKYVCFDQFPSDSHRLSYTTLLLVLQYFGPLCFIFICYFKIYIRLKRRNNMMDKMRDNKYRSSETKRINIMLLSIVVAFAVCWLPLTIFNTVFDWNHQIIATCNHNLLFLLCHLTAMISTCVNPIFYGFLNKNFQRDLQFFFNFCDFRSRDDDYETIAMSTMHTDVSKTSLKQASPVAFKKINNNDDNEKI
Experimental: Testing of Peptides 1-11 was carried out using specific cell lines. The neuroepithelioma cell line SK-N-MC endogenously expressing the NPY Y1 receptor was obtained from ATCC (HTB-10; LGC Standards, Teddington, Middlesex, UK). Cells were cultured at 37° C. and 5% CO2 in MEM medium with GlutaMax I and supplemented with 10% FBS, 100 U/ml penicillin and 100 μg/ml streptomycin, 1 mM MEM sodium pyruvate, and MEM non-essential amino acids (1×). The neuroblastoma cell line SH-SY5Y endogenously expressing the NPY Y2 receptor, was provided by Dr. Paolo Paganetti (Novartis, Basel, Switzerland). Cells were cultured at 37° C. and 5% CO2 in MEM/Ham's F12 with GlutaMax I and supplemented with 10% FBS, 100 U/ml penicillin and 100 μg/ml streptomycin, 1 mM MEM sodium pyruvate, and MEM non-essential amino acids (1×).
Binding affinities of the compounds were assessed using sections of cell membrane pellets of SK-N-MC for NPY Y1 or SH-SY5Y for NPY Y2. Briefly, membrane pellets were prepared and stored at −80° C., and receptor autoradiography was performed on 20-μm thick cryostat sections of the membrane pellets, mounted on microscope slides and stored at −20° C. The slides were preincubated in Krebs-Ringer solution (NaCl 119 mM, KCl 3.2 mM, KH2PO4 1.19 mM, MgSO4 1.19 mM, NaHCO3 25 mM, CaCl2 2.53 mM, D-glucose 10 mM; pH 7.4) for 60 min at room temperature. Then, they were incubated for 120 min in Krebs-Ringer solution containing 0.1% BSA, 0.05% bacitracin, and 10 000 cpm/100 μl of the ^125I-labeled human PYY alone or with increasing concentrations ranging from 0.1 nM up to 1000 nM of non-labeled hPYY, as control, or with the compounds to be tested. After the incubation, the slides were washed two times for 5 min and then rinsed four times in ice-cold preincubation solution. After drying, the slides were exposed to Kodak films Biomax MR® for 7 days. IC50 values were calculated after quantification of the data using a computer-assisted image processing system. Tissue standards containing known amount of isotope, cross-calibrated to tissue-equivalent ligand concentrations were used for quantification.
The DOTA-free and DOTA-coupled analogs listed in Table 1 were analyzed in receptor autoradiography experiments for NPY Y1 and Y2 receptor binding affinities on SK-N-MC cells endogenously expressing Y1 and SH-SY5Y cells endogenously expressing Y2, respectively. Pharmacological displacement experiment using SK-N-MC cell membrane pellet sections for Peptides Nos. 9, 10 and 11 are shown in FIG. 2. The addition of two DOTA moieties to the homodimeric analogs decreases the Y1 binding affinity up to 2-30 fold.

NPY Y1 [2] = target: T1, NPY Y1; test: Adenylate cyclase activity (forskolin-stimulated cAMP accumulation) flashplate assay in SK-N-MC cells; type: cell-based; conditions: for Activity Y1-cAMP (SK-N-MC): agonistic or antagonistic property: SK-N-MC cells
Experimental: Cells were incubated for 30 min with 10 μM forskolin in the presence of [Leu^31-Pro^34]-PYY (LP-PYY) at concentrations ranging between 0.01 nM and 20 μM alone ([…]) or with 10 μM forskolin in the presence of LP-PYY at concentrations ranging between 0.01 nM and 20 μM supplemented with a fixed concentration of 20 μM of the analog Peptide No. 11 (▪). […] Peptide No. 11 given alone has no effect on the accumulation of forskolin-stimulated cAMP (▴).
Adenylate cyclase activity with respect to NPY Y1 was determined in SK-N-MC cells using the adenylate cyclase activation flashplate assay (SMP004) from PerkinElmer. SK-N-MC cells were seeded in 96-well culture plates at 25,000 cells/well and cultured for 48 h at 37° C. and 5% CO2. Culture medium was then removed from the wells and fresh medium (100 μL) containing 0.5 mM 3-isobutyl-1-methylxanthine (IBMX) was added to each well. Cells were incubated for 30 min at 37° C. Medium was then removed and replaced with fresh medium containing 0.5 mM IBMX, with or without 10 μM forskolin and various concentrations of the peptides to be analyzed. Cells were incubated for 30 min at 37° C. After removal of the medium, cells were lysed and cAMP accumulation was determined using the SMP004 kit from PerkinElmer.
Because the addition of a DOTA moiety can change the functional characteristics of a compound, as recently shown in the somatostatin receptor field for sst3, compounds having a high or moderate Y1 affinity were analyzed in an adenylate cyclase activity assay for their agonistic or antagonistic properties. […] Given alone at a high concentration of 20 μM, they were unable to inhibit forskolin-stimulated cAMP accumulation but they efficiently antagonized the agonistic effect of 100 nM [Leu^31, Pro^34]-hPYY. […] The conclusion is that the DOTA-conjugated compound, i.e. Peptide No. 11, with its high binding affinity and its antagonist property represents an excellent candidate for in vivo tumor targeting.

Molecule	Displacement of 125I-hPYY (FIG. 2) (NPY Y1 [1])	IC50 (NPY Y1 [1]) [nM]	Activity Y1-cAMP (SK-N-MC): agonistic or antagonistic property (NPY Y1 [2]; 10 μM forskolin)	Effect on forskolin-stimulated cAMP accumulation, given alone (NPY Y1 [2]; peptide alone, 20 μM, 10 μM forskolin)	Effect on dose response curve of [Leu31,Pro34]-PYY (LP-PYY) (NPY Y1 [2]; peptide fixed at 20 μM, with increasing LP-PYY, 10 μM forskolin, 30 min)	Inhibition of forskolin-stimulated cAMP accumulation (agonist control) (NPY Y1 [2]; applied at 20 μM and 100 nM)
hPYY: non-labeled human peptide YY, used as control in binding competition [reference compound]	high affinity displacements	–	–	–	–	–
CCCC[C@H](NC(=O)[C@H](CCCNC(=N)N)NC(=O)[C@H](Cc1c[nH]c2ccccc12)NC(=O)[C@H](CSSC[C@H](NC(=O)[C@@H]1CCCN1C(=O)[C@H](CC(N)=O)NC(=O)[C@@H](N)[C@@H](C)CC)C(=O)N[C@@H](Cc1c[nH]c2ccccc12)C(=O)N[C@@H](CCCNC(=N)N)C(=O)N[C@@H](CCCC)C(=O)N[C@@H](CCCNC(=N)N)C(=O)N[C@@H](Cc1ccc(O)cc1)C(N)=O)NC(=O)[C@@H]1CCCN1C(=O)[C@H](CCCCNC(=O)CN1CCN(CC(=O)O)CCN(CC(=O)O)CCN(CC(=O)O)CC1)NC(=O)[C@@H](N)[C@@H](C)CC)C(=O)N[C@@H](CCCNC(=N)N)C(=O)N[C@@H](Cc1ccc(O)cc1)C(N)=O [Peptide No. 11] (I: H-IK(DOTA)PCWR[Nle]RY-NH2 / II: H-INPCWR[Nle]RY-NH2; disulfide I:4-II:4)	high affinity displacements	13	Antagonist	no effect	shifts the dose response curve of LP-PYY to the right; also recorded: shift the dose response curve of [Leu^31, Pro^34]-hPYY to the right	–
[Leu^31, Pro^34]-hPYY [reference compound]	–	–	–	–	–	efficiently inhibited forskolin-stimulated cAMP accumulation
CC[C@H](C)[C@H](NC(=O)CN1CCN(CC(=O)O)CCN(CC(=O)O)CCN(CC(=O)O)CC1)C(=O)N[C@@H](CC(N)=O)C(=O)N1CCC[C@H]1C(=O)N[C@@H](CSSC[C@H](NC(=O)[C@@H]1CCCN1C(=O)[C@H](CC(N)=O)NC(=O)[C@@H](NC(=O)CN1CCN(CC(=O)O)CCN(CC(=O)O)CCN(CC(=O)O)CC1)[C@@H](C)CC)C(=O)N[C@@H](Cc1ccc(O)cc1)C(=O)N[C@@H](CCCNC(=N)N)C(=O)N[C@@H](CC(C)C)C(=O)N[C@@H](CCCNC(=N)N)C(=O)N[C@@H](Cc1ccc(O)cc1)C(N)=O)C(=O)N[C@@H](Cc1ccc(O)cc1)C(=O)N[C@@H](CCCNC(=N)N)C(=O)N[C@@H](CC(C)C)C(=O)N[C@@H](CCCNC(=N)N)C(=O)N[C@@H](Cc1ccc(O)cc1)C(N)=O [compound 2] (I: {DOTA}-INPCYRLRY-NH2 / II: {DOTA}-INPCYRLRY-NH2; disulfide I:4-II:4)	–	143 ± 37	Antagonist	–	–	–
CCCC[C@H](NC(=O)[C@H](CCCNC(=N)N)NC(=O)[C@H](Cc1c[nH]c2ccccc12)NC(=O)[C@H](CSSC[C@H](NC(=O)[C@@H]1CCCN1C(=O)[C@H](CC(N)=O)NC(=O)[C@@H](NC(=O)CN1CCN(CC(=O)O)CCN(CC(=O)O)CCN(CC(=O)O)CC1)[C@@H](C)CC)C(=O)N[C@@H](Cc1c[nH]c2ccccc12)C(=O)N[C@@H](CCCNC(=N)N)C(=O)N[C@@H](CCCC)C(=O)N[C@@H](CCCNC(=N)N)C(=O)N[C@@H](Cc1ccc(O)cc1)C(N)=O)NC(=O)[C@@H]1CCCN1C(=O)[C@H](CC(N)=O)NC(=O)[C@@H](NC(=O)CN1CCN(CC(=O)O)CCN(CC(=O)O)CCN(CC(=O)O)CC1)[C@@H](C)CC)C(=O)N[C@@H](CCCNC(=N)N)C(=O)N[C@@H](Cc1ccc(O)cc1)C(N)=O [compound 4] (I: {DOTA}-INPCWR[Nle]RY-NH2 / II: {DOTA}-INPCWR[Nle]RY-NH2; disulfide I:4-II:4)	–	294 ± 33	Antagonist	–	–	–

From patent US20120259092A1, “NPY ANTAGONISTS” (priority 2011, published 2012)
